Test results as given in ChEMBL document CHEMBL1201862, “PubChem BioAssay data set” (2004).
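Cells were grown in 96-well plates and exposed to each compound for 48 hours at five concentrations; endpoints were interpolated linearly between bracketing concentrations, or set to the highest concentration if not reached. GI50: concentration for 50% inhibition of growth.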 Activity calls are given as the source filed them. No stated cut-off is given here; in the data, active = GI50 up to about 1.1 µM and inactive = higher.

How the values were obtained:
Experiment in all cases: growth of human tumour cells (NCI), 48 h
A498 = tested on: A498
A549 = tested on: A549
HCT-15 = tested on: HCT-15
HL-60 = tested on: HL-60
HOP-92 = tested on: HOP-92
K562 = tested on: K562
M14 = tested on: M14
NCI-H226 = tested on: NCI-H226
NCI-H522 = tested on: NCI-H522
RPMI-8226 = tested on: RPMI-8226
SF-539 = tested on: SF-539
SK-MEL-2 = tested on: SK-MEL-2
SK-MEL-5 = tested on: SK-MEL-5
SK-OV-3 = tested on: SK-OV-3
SN12C = tested on: SN12C
SNB-78 = tested on: SNB-78
UACC-257 = tested on: UACC-257
Hs-578T = tested on: Hs-578T
MDA-MB-231 = tested on: MDA-MB-231
PC-3 = tested on: PC-3

Compound	GI50 (A498)	GI50 (A549)	GI50 (HCT-15) [µM]	GI50 (HL-60)	GI50 (HOP-92)	GI50 (K562)	GI50 (M14)	GI50 (NCI-H226)	GI50 (NCI-H522)	GI50 (RPMI-8226)	GI50 (SF-539)	GI50 (SK-MEL-2)	GI50 (SK-MEL-5)	GI50 (SK-OV-3)	GI50 (SN12C)	GI50 (SNB-78)	GI50 (UACC-257)	GI50 (Hs-578T)	GI50 (MDA-MB-231)	GI50 (PC-3)
C=C(C)C1Cc2c(cc(OC)c3c(=O)c4ccccc4n(C)c23)O1 (stereo not drawn)	> 100 µM (inactive)	> 100 µM (inactive)	83.6	> 100 µM (inactive)	> 100 µM (inactive)	57.5 µM (inactive)	> 100 µM (inactive)	> 100 µM (inactive)	18.3 µM (inactive)	> 100 µM (inactive)	> 100 µM (inactive)	> 100 µM (inactive)	> 100 µM (inactive)	> 100 µM (inactive)	> 100 µM (inactive)	> 100 µM (inactive)	> 100 µM (inactive)	–	–	–
O=C(c1ccc(Cl)cc1)c1ccc(OCCCOc2ccc(C(=O)c3ccc(Cl)cc3)cc2Cl)c(Cl)c1	–	> 100 µM (inactive)	> 100	> 100 µM (inactive)	> 100 µM (inactive)	> 100 µM (inactive)	> 100 µM (inactive)	> 100 µM (inactive)	> 100 µM (inactive)	> 100 µM (inactive)	> 100 µM (inactive)	> 100 µM (inactive)	> 100 µM (inactive)	> 100 µM (inactive)	> 100 µM (inactive)	> 100 µM (inactive)	> 100 µM (inactive)	–	–	–
COC(=O)C(C(=O)C(=O)Nc1ccc(OC)cc1[N+](=O)[O-])c1nc2cc(C)c(C)cc2nc1O (stereo not drawn)	> 100 µM (inactive)	> 100 µM (inactive)	> 100	> 100 µM (inactive)	> 100 µM (inactive)	31.6 µM (inactive)	> 100 µM (inactive)	> 100 µM (inactive)	> 100 µM (inactive)	–	> 100 µM (inactive)	–	> 100 µM (inactive)	> 100 µM (inactive)	> 100 µM (inactive)	> 100 µM (inactive)	> 100 µM (inactive)	–	–	–
COc1cc(CC2c3cc(OC)c(OC)cc3CCN2C)ccc1O (stereo not drawn)	> 100 µM (inactive)	> 100 µM (inactive)	> 100	–	–	> 100 µM (inactive)	> 100 µM (inactive)	–	> 100 µM (inactive)	> 100 µM (inactive)	> 100 µM (inactive)	> 100 µM (inactive)	> 100 µM (inactive)	–	> 100 µM (inactive)	> 100 µM (inactive)	> 100 µM (inactive)	–	–	–
CSc1n[n+]2c(s1)SCCC2	–	20.5 µM (inactive)	–	> 100 µM (inactive)	> 100 µM (inactive)	> 100 µM (inactive)	> 100 µM (inactive)	–	26.9 µM (inactive)	–	> 100 µM (inactive)	–	46.5 µM (inactive)	–	> 100 µM (inactive)	> 100 µM (inactive)	> 100 µM (inactive)	–	–	–
NS(=O)(=O)c1ccc(Nc2c3ccccc3nc3c(C(=O)N4CCN(CCO)CC4)cccc23)cc1	> 100 µM (inactive)	> 100 µM (inactive)	> 100	29.2 µM (inactive)	> 100 µM (inactive)	53.2 µM (inactive)	> 100 µM (inactive)	> 100 µM (inactive)	80.9 µM (inactive)	–	> 100 µM (inactive)	> 100 µM (inactive)	> 100 µM (inactive)	> 100 µM (inactive)	> 100 µM (inactive)	69.3 µM (inactive)	> 100 µM (inactive)	–	–	–
CCCCCCCCCCCCCCCCOCC(CN(C)CCN(C)C)OCCCCCCCCCCCCCCCC (stereo not drawn)	> 100 µM (inactive)	> 100 µM (inactive)	> 100	> 100 µM (inactive)	> 100 µM (inactive)	> 100 µM (inactive)	> 100 µM (inactive)	> 100 µM (inactive)	> 100 µM (inactive)	> 100 µM (inactive)	–	> 100 µM (inactive)	> 100 µM (inactive)	> 100 µM (inactive)	> 100 µM (inactive)	> 100 µM (inactive)	> 100 µM (inactive)	–	–	–
O[C@]12c3ccccc3C1CCCC2N1CCOCC1 (stereo partly drawn)	–	> 100 µM (inactive)	> 100	> 100 µM (inactive)	–	> 100 µM (inactive)	> 100 µM (inactive)	> 100 µM (inactive)	> 100 µM (inactive)	> 100 µM (inactive)	–	> 100 µM (inactive)	> 100 µM (inactive)	> 100 µM (inactive)	> 100 µM (inactive)	> 100 µM (inactive)	> 100 µM (inactive)	–	–	–
Cc1nc(C)c(N2CCN(S(=O)(=O)N(Cc3ccccc3)Cc3ccccc3)CC2)c(O)n1	> 51.9 µM (inactive)	> 100 µM (inactive)	> 100	> 100 µM (inactive)	9.73 µM (inactive)	> 100 µM (inactive)	> 100 µM (inactive)	0.279 µM (active)	4.85 µM (inactive)	> 100 µM (inactive)	12.5 µM (inactive)	26.7 µM (inactive)	> 100 µM (inactive)	7.76 µM (inactive)	> 100 µM (inactive)	–	> 100 µM (inactive)	3.4 µM (inactive)	> 35.7 µM (inactive)	41.8 µM (inactive)
O=C(c1cc(Cl)cc(Cl)c1)N(Cc1cccnc1)C(=S)N(Cc1cccnc1)C(=O)c1cc(Cl)cc(Cl)c1	27.4 µM (inactive)	> 100 µM (inactive)	25.2	25.3 µM (inactive)	36.6 µM (inactive)	24.4 µM (inactive)	26.4 µM (inactive)	52.1 µM (inactive)	23.8 µM (inactive)	4.37 µM (inactive)	23.4 µM (inactive)	31.7 µM (inactive)	23.3 µM (inactive)	> 100 µM (inactive)	41.4 µM (inactive)	–	33 µM (inactive)	60.8 µM (inactive)	26.5 µM (inactive)	18.4 µM (inactive)
CN(CCc1ccccn1)/[N+]([O-])=N/O.CNCCc1ccccn1	–	> 100 µM (inactive)	> 100	> 100 µM (inactive)	> 100 µM (inactive)	> 100 µM (inactive)	> 100 µM (inactive)	> 100 µM (inactive)	–	> 100 µM (inactive)	> 100 µM (inactive)	> 100 µM (inactive)	> 100 µM (inactive)	–	> 100 µM (inactive)	> 100 µM (inactive)	> 100 µM (inactive)	–	–	–
CC(C)NCC(O)c1cc(OCc2ccccc2)c(OCc2ccccc2)cc1NC(=O)CCC(=O)O (stereo not drawn)	11 µM (inactive)	11.8 µM (inactive)	3.24	3.15 µM (inactive)	4.78 µM (inactive)	1.92 µM (inactive)	1.45 µM (inactive)	15.7 µM (inactive)	3.52 µM (inactive)	2.81 µM (inactive)	16.4 µM (inactive)	1.45 µM (inactive)	2.1 µM (inactive)	14.9 µM (inactive)	11.7 µM (inactive)	–	13.4 µM (inactive)	11.6 µM (inactive)	8.15 µM (inactive)	9.02 µM (inactive)
CCOC(=O)C(=CNc1ccc(NC2=NCC(C)S2)cc1)C(=O)OCC (stereo not drawn)	28.8 µM (inactive)	35.6 µM (inactive)	15.2	2.38 µM (inactive)	30.4 µM (inactive)	0.382 µM (active)	31.5 µM (inactive)	42.4 µM (inactive)	2.66 µM (inactive)	9.48 µM (inactive)	47.8 µM (inactive)	19.7 µM (inactive)	16.5 µM (inactive)	60 µM (inactive)	41 µM (inactive)	–	26.5 µM (inactive)	25.5 µM (inactive)	34.3 µM (inactive)	16.1 µM (inactive)
